Earlier results, collected in PubChem BioAssay AID1259409 (Chemical Carcinogenesis Research Information System (CCRIS), 2018).
Several values for one entry are separate records, joined by “and”; a condition that tells them apart may be missing. Equal entries are not always repeated.

Tested on: rodent chemically induced tumor inhibition, incidence and multiplicity
Assay: CCRIS tumor inhibitor studies

N[C@@H](CS)C(=O)O
tumour outcome (control, treated, inhibition, significance) (Carcinogen: 7,12-DIMETHYLBENZ[A]ANTHRACENE, 57-97-6, Dose [Inhibitor]: 0.03 NMOL/G DIET DAILY FOR 17 WK STARTING 1 WK PRIOR TO CARCINOGEN TREATMENT AND CONTINUING THROUGH THE END OF THE STUDY, Route [Inhibitor]: ORAL, Species: RAT, Strain/Sex: SPRAGUE-DAWLEY/FEMALE, Target Tissue: Type of Lesion: MAMMARY GLAND: TUMOR, Dose [Carcinogen]: 12 MG IN 1 ML OLIVE OIL ONCE, Promoter: NONE USED): 59%, 61%, -3%, not significant
tumour outcome (control, treated, inhibition, significance) (Carcinogen: TRANS-5-AMINO-3-[2-(5-NITRO-2-FURYL)VINYL]-1,2,4-OXADIAZOLE;SQL8506, 28754-68-9, Carcinogen: TRANS-5-AMINO-3-[2-(5-NITRO-2-FURYL)VINYL]-1,2,4-OXADIAZOLE;SQL8506, 28754-68-9, Dose [Inhibitor]: 100 MG/KG 16 HR BEFORE THE 1ST CARCINOGEN DOSE FOLLOWED BY ADDITIONAL DOSES IMMEDIATELY BEFORE EACH DOSE OF CARCINOGEN (, Route [Inhibitor]: INTRAPERITONEAL, Species: MOUSE, Strain/Sex: CD-1/FEMALE, Target Tissue: Type of Lesion: HEMATOPOIETIC SYSTEM: MYELOID LEUKEMIA, Dose [Carcinogen]: 1 G/KG 2/D FOR 5 D EVERY 4 WK, Promoter: NONE USED): 7/137 (5%), 1/32 (3%), 40%, not calculated
tumour outcome (control, treated, inhibition, significance) (Carcinogen: TRANS-5-AMINO-3-[2-(5-NITRO-2-FURYL)VINYL]-1,2,4-OXADIAZOLE;SQL8506, 28754-68-9, Carcinogen: TRANS-5-AMINO-3-[2-(5-NITRO-2-FURYL)VINYL]-1,2,4-OXADIAZOLE;SQL8506, 28754-68-9, Dose [Inhibitor]: 100 MG/KG 16 HR BEFORE THE 1ST CARCINOGEN DOSE FOLLOWED BY ADDITIONAL DOSES IMMEDIATELY BEFORE EACH DOSE OF CARCINOGEN (, Route [Inhibitor]: INTRAPERITONEAL, Species: MOUSE, Strain/Sex: CD-1/FEMALE, Target Tissue: Type of Lesion: LYMPHOID TISSUE: NONTHYMIC LYMPHOMA, Dose [Carcinogen]: 1 G/KG 2/D FOR 5 D EVERY 4 WK, Promoter: NONE USED): 8/137 (6%), 1/32 (3%), 50%, not calculated
tumour outcome (control, treated, inhibition, significance) (Carcinogen: TRANS-5-AMINO-3-[2-(5-NITRO-2-FURYL)VINYL]-1,2,4-OXADIAZOLE;SQL8506, 28754-68-9, Carcinogen: TRANS-5-AMINO-3-[2-(5-NITRO-2-FURYL)VINYL]-1,2,4-OXADIAZOLE;SQL8506, 28754-68-9, Dose [Inhibitor]: 100 MG/KG 16 HR BEFORE THE 1ST CARCINOGEN DOSE FOLLOWED BY ADDITIONAL DOSES IMMEDIATELY BEFORE EACH DOSE OF CARCINOGEN (, Route [Inhibitor]: INTRAPERITONEAL, Species: MOUSE, Strain/Sex: CD-1/FEMALE, Target Tissue: Type of Lesion: LYMPHOID TISSUE: THYMIC LYMPHOMA, Dose [Carcinogen]: 1 G/KG 2/D FOR 5 D EVERY 4 WK, Promoter: NONE USED): 22/137 (16%), 5/32 (16%), 0%, not calculated
tumour outcome (control, treated, inhibition, significance) (Carcinogen: TRANS-5-AMINO-3-[2-(5-NITRO-2-FURYL)VINYL]-1,2,4-OXADIAZOLE;SQL8506, 28754-68-9, Carcinogen: TRANS-5-AMINO-3-[2-(5-NITRO-2-FURYL)VINYL]-1,2,4-OXADIAZOLE;SQL8506, 28754-68-9, Dose [Inhibitor]: 100 MG/KG 16 HR BEFORE THE 1ST CARCINOGEN DOSE FOLLOWED BY ADDITIONAL DOSES IMMEDIATELY BEFORE EACH DOSE OF CARCINOGEN (, Route [Inhibitor]: INTRAPERITONEAL, Species: MOUSE, Strain/Sex: CD-1/FEMALE, Target Tissue: Type of Lesion: STOMACH: SQUAMOUS CARCINOMA, Dose [Carcinogen]: 1 G/KG 2/D FOR 5 D EVERY 4 WK, Promoter: NONE USED): 60/137 (44%), 9/32 (28%), 36%, not calculated

COc1c2occc2cc2ccc(=O)oc12
outcome (Carcinogen: 4-(N-methyl-N-nitrosamino)-1-(3-pyridyl)-1-butanone, 64091-91-4, Dose [Inhibitor]: 0, 1, 10, 100 ppm in diet for 3 d beginning at 7 wks of age, tumors collected 16 wk after treatment, Route [Inhibitor]: Oral, Species: Mouse, Strain/Sex: A/J/Female, Target Tissue: Type of Lesion: Lung: Adenomas, Dose [Carcinogen]: Single dose of 2 mg 3 days after first inhibitor treatment (Test material solvent: saline), Promoter: None): 12/20 (75%), 17/20 (95%), 14/20 (70%), 10/20 (50%), p<0.001

CC#C[C@]1(O)CC[C@H]2[C@@H]3CCC4=CC(=O)CCC4=C3[C@@H](c3ccc(N(C)C)cc3)C[C@@]21C
tumour outcome (control, treated, inhibition, significance) (Carcinogen: 7,12-Dimethylbenz(a)anthracene (57-97-6), Dose [Inhibitor]: 10 mg administered daily for 28 days, Route [Inhibitor]: Subcutaneous, Species: Rat, Strain/Sex: Sprague-Dawley/Female, Target Tissue: Type of Lesion: Mammary gland: Adenocarcinoma and papillary carcinoma, Dose [Carcinogen]: 10 mg/kg once at 50 days of age, Promoter: None): 12/13 (92%), 13/14 (93%), 0% ns

CCCCCCC[Se]C#N
tumour outcome (control, treated, inhibition, significance) (Carcinogen: 7,12-DIMETHYLBENZ[A]ANTHRACENE, 57-97-6, Dose [Inhibitor]: 0.1, 2 PPM (SELENIUM) IN DIET FOR 3 WK BEGINNING 2 WK PRIOR TO CARCINOGEN DOSE (STUDY DURATION: 25 WK), Route [Inhibitor]: ORAL, Species: RAT, Strain/Sex: SPRAGUE-DAWLEY/FEMALE, Target Tissue: Type of Lesion: MAMMARY GLAND: TUMOR, Dose [Carcinogen]: 10 MG ONCE, Promoter: NONE USED): 25/30 (83%), 11/30 (37%), 55%, p<0.05

CCC1OC(C)=C(O)C1=O (configuration not stated)
tumour outcome (control, treated, inhibition, significance) (Carcinogen: BENZO[A]PYRENE, 50-32-8, Dose [Inhibitor]: 0, 25 PPM IN DIET BEGINNING POST CARCINOGEN TREATMENT AND CONTINUING FOR DURATION OF STUDY (STUDY DURATION: 148 D), Route [Inhibitor]: ORAL, Species: MOUSE, Strain/Sex: ICR/FEMALE, Target Tissue: Type of Lesion: FORESTOMACH: TUMOR, Dose [Carcinogen]: 1.5 MG IN 0.2 ML CORN OIL 1/WK FOR 4 WK, Promoter: NONE USED): 100%, 76%, 24%, not calculated
tumour outcome (control, treated, inhibition, significance) (Carcinogen: BENZO[A]PYRENE, 50-32-8, Dose [Inhibitor]: 0, 50 PPM IN DIET BEGINNING POST CARCINOGEN TREATMENT AND CONTINUING FOR DURATION OF STUDY (STUDY DURATION: 148 D), Route [Inhibitor]: ORAL, Species: MOUSE, Strain/Sex: ICR/FEMALE, Target Tissue: Type of Lesion: FORESTOMACH: TUMOR, Dose [Carcinogen]: 1.5 MG IN 0.2 ML CORN OIL 1/WK FOR 4 WK, Promoter: NONE USED): 100%, 54%, 46%, not calculated
tumour outcome (control, treated, inhibition, significance) (Carcinogen: BENZO[A]PYRENE, 50-32-8, Dose [Inhibitor]: 0, 75 PPM IN DIET BEGINNING POST CARCINOGEN TREATMENT AND CONTINUING FOR DURATION OF STUDY (STUDY DURATION: 148 D), Route [Inhibitor]: ORAL, Species: MOUSE, Strain/Sex: ICR/FEMALE, Target Tissue: Type of Lesion: FORESTOMACH: TUMOR, Dose [Carcinogen]: 1.5 MG IN 0.2 ML CORN OIL 1/WK FOR 4 WK, Promoter: NONE USED): 100%, 75%, 25%, not calculated

CC(C)(C)c1cc(Cc2cc(C(C)(C)C)c(O)c(C(C)(C)C)c2)cc(C(C)(C)C)c1O
tumour outcome (control, treated, inhibition, significance) (Carcinogen: BENZO[A]PYRENE, 50-32-8, Dose [Inhibitor]: 0.03 MMOL/G OF DIET DAILY STARTING 7 D BEFORE AND CONTINUING THROUGH 3 D AFTER CARCINOGEN TREATMENT FOLLOWED BY OBSERVAT, Route [Inhibitor]: ORAL, Species: MOUSE, Strain/Sex: ICR/FEMALE, Target Tissue: Type of Lesion: FORESTOMACH: NEOPLASM, Dose [Carcinogen]: 1 MG IN 0.2 ML CORN OIL 2/WK FOR 4 WK, Promoter: NONE USED): 94%, 100%, -6%, not significant

O=c1ccc2ccc(O)cc2o1
tumour outcome (control, treated, inhibition, significance) (Carcinogen: 7,12-DIMETHYLBENZ[A]ANTHRACENE, 57-97-6, Dose [Inhibitor]: 0.034 MMOL/G IN DIET FOR 8 D BEGINNING 7 D PRIOR TO CARCINOGEN DOSE (STUDY DURATION: 23 WK), Route [Inhibitor]: ORAL, Species: RAT, Strain/Sex: SPRAGUE-DAWLEY/FEMALE, Target Tissue: Type of Lesion: MAMMARY GLAND: TUMOR, Dose [Carcinogen]: 12 MG IN 1.0 ML OLIVE OIL ONCE, Promoter: NONE USED): 93%, 93%, 0%, not significant
tumour outcome (control, treated, inhibition, significance) (Carcinogen: BENZO[A]PYRENE, 50-32-8, Dose [Inhibitor]: 0.034 MMOL/G IN DIET FOR 5 WK BEGINNING 1 WK PRIOR TO FIRST CARCINOGEN DOSE (STUDY DURATION: 21 WK), Route [Inhibitor]: ORAL, Species: MOUSE, Strain/Sex: ICR/FEMALE, Target Tissue: Type of Lesion: FORESTOMACH: TUMOR, Dose [Carcinogen]: 1 MG IN 0.2 ML CORN OIL 2/WK FOR 4 WK, Promoter: NONE USED): 100%, 95%, 5%, not significant and 90%, 95%,-5%, not significant and 95%, 100%, -5%, not significant
tumour outcome (control, treated, inhibition, significance) (Carcinogen: BENZO[A]PYRENE, 50-32-8, Dose [Inhibitor]: 0.068 MMOL/G IN DIET FOR 5 WK BEGINNING 1 WK PRIOR TO FIRST CARCINOGEN DOSE (STUDY DURATION: 21 WK), Route [Inhibitor]: ORAL, Species: MOUSE, Strain/Sex: ICR/FEMALE, Target Tissue: Type of Lesion: FORESTOMACH: TUMOR, Dose [Carcinogen]: 1 MG IN 0.2 ML CORN OIL 2/WK FOR 4 WK, Promoter: NONE USED): 100%, 95%, 5%, not significant

CC1=C(/C=C/C(C)=C/C=C/C(C)=C/C(=O)NCCCCO)C(C)(C)CCC1
tumour outcome (control, treated, inhibition, significance) (Carcinogen: N-BUTYL-N-(4-HYDROXYBUTYL)NITROSAMINE, 3817-11-6, Dose [Inhibitor]: 1.5 MMOL/KG DIET DAILY FOR 133 D STARTING ONE WK AFTER THE FINAL CARCINOGEN DOSE (STUDY DURATION: 190 D), Route [Inhibitor]: ORAL, Species: MOUSE, Strain/Sex: BDF/MALE, Target Tissue: Type of Lesion: URINARY BLADDER: TRANSITIONAL CELL CARCINOMA, Dose [Carcinogen]: 7.5 MG 1/WK FOR 8 WK, Promoter: NONE USED): 21/100 (21%), 21/100 (21%), 0%, not significant
tumour outcome (control, treated, inhibition, significance) (Carcinogen: N-BUTYL-N-(4-HYDROXYBUTYL)NITROSAMINE, 3817-11-6, Dose [Inhibitor]: 1.5 MMOL/KG IN DIET FOR 133 D STARTING 1 WK AFTER LAST CARCINOGEN DOSE (STUDY DURATION: 190 D), Route [Inhibitor]: ORAL, Species: MOUSE, Strain/Sex: DBF1/MALE, Target Tissue: Type of Lesion: URINARY BLADDER: TRANSITIONAL CELL CARCINOMA, Dose [Carcinogen]: 7.5 MG 1/WK FOR 8 WK, Promoter: NONE USED): 21/100 (21%), 21/100 (21%), 0%, not significant
